Data reported in DBAASP.
Values after ≈ are worked out from the molar mass of the structure shown. Blank lines part the entries; values can stand above or below the compound they belong to.

What was measured:
Test in all cases: ≥ marks a high value that may be exact or a test limit, other limits are often not marked, values filed in µg/mL are converted to µM
Bacillus subtilis = tested on: Bacillus subtilis
[1] = tested on: Enterococcus faecalis E1478F
[2] = tested on: Staphylococcus aureus RN4220
Staphylococcus aureus = tested on: Staphylococcus aureus
[3] = tested on: Staphylococcus sciuri P254
[4] = tested on: Bacillus cereus ATCC 10876
[5] = tested on: Enterococcus faecalis ATCC 29212
[6] = tested on: Escherichia coli ATCC 25922
[7] = tested on: Pseudomonas aeruginosa ATCC 27853
[8] = tested on: Salmonella enterica subsp. enterica serovar Typhimurium ATCC 14028
[9] = tested on: Staphylococcus aureus ATCC 6538
[10] = tested on: Streptococcus agalactiae ATCC 27956
[11] = tested on: Streptococcus dysgalactiae subsp. dysgalactiae ATCC 27957
[12] = tested on: Streptococcus equi subsp. zooepidemicus ATCC 43079
Citrobacter freundii = tested on: Citrobacter freundii
Klebsiella pneumoniae = tested on: Klebsiella pneumoniae
[13] = tested on: Salmonella enterica subsp. enterica serovar Paratyphi A
[14] = tested on: Staphylococcus haemolyticus
[15] = tested on: Escherichia coli ATCC 11775
[16] = tested on: Escherichia coli ATCC 35218
[17] = tested on: Escherichia coli ATCC 43827
Escherichia coli ESBL 4 = tested on: Escherichia coli ESBL 4
Escherichia coli ESBL = tested on: Escherichia coli ESBL
Escherichia coli UB1005 = tested on: Escherichia coli UB1005
[18] = tested on: Lacticaseibacillus rhamnosus 1.0385
[19] = tested on: Lacticaseibacillus rhamnosus 1.0386
[20] = tested on: Lacticaseibacillus rhamnosus 1.0911
[21] = tested on: Lacticaseibacillus rhamnosus 1.0925
[22] = tested on: Lacticaseibacillus rhamnosus 7469
[23] = tested on: Lactiplantibacillus plantarum 8014
[24] = tested on: Staphylococcus aureus ATCC 29213
[25] = tested on: Staphylococcus aureus ATCC 43300
[26] = tested on: Staphylococcus epidermidis ATCC 12228
Escherichia coli 45849 = tested on: Escherichia coli 45849
Escherichia coli BL21AI = tested on: Escherichia coli BL21AI
Escherichia coli D31 = tested on: Escherichia coli D31
[27] = tested on: Klebsiella pneumoniae 123132
[28] = tested on: Klebsiella pneumoniae K6 ATCC 700603
[29] = tested on: Salmonella enterica subsp. enterica serovar Typhi S5
[30] = tested on: Salmonella enterica subsp. enterica serovar Typhimurium ATCC 700408
[31] = tested on: Bacillus subtilis IFO 3037
[32] = tested on: Escherichia coli IFO 14237
[33] = tested on: Staphylococcus aureus IFO 12732

SMILES: CC[C@H](C)[C@H](NC(=O)[C@H](CC(C)C)NC(=O)[C@@H]1CCCN1C(=O)[C@H](CC(C)C)NC(=O)[C@@H](N)Cc1ccccc1)C(=O)NCC(=O)NCC(=O)N[C@@H](CC(C)C)C(=O)N[C@@H](CC(C)C)C(=O)N[C@@H](CO)C(=O)N[C@@H](CCCCN)C(=O)N[C@@H](CC(C)C)C(=O)N[C@@H](CC(C)C)C(N)=O [FLPLIGGLLSKLL]
MIC (Bacillus subtilis): 2.83 µM (≈ 3.91 µg/mL) | MIC [1]: 2.83 µM (≈ 3.91 µg/mL) | MIC [2]: ≥ 45.2 µM | MIC (Staphylococcus aureus): 45.2 µM (≈ 62.5 µg/mL) | MIC [3]: ≥ 45.2 µM

SMILES: CC[C@H](C)[C@H](NC(=O)[C@H](Cc1ccc(O)cc1)NC(=O)[C@H](CCC(N)=O)NC(=O)[C@H](CC(C)C)NC(=O)[C@H](C)NC(=O)[C@H](CCCCN)NC(=O)[C@H](CCCCN)NC(=O)[C@H](CCSC)NC(=O)[C@H](CCCCN)NC(=O)[C@H](CCCCN)NC(=O)[C@@H](N)CCCCN)C(=O)N[C@@H](CCCCN)C(=O)N[C@@H](CC(C)C)C(=O)N[C@@H](CC(C)C)C(=O)N[C@@H](CCCCN)C(=O)N[C@@H](CCC(=O)O)C(N)=O [KKKMKKALQYIKLLKE]
MIC [15]: ≥ 100 µM | MIC [6]: 25 µM (≈ 49.7 µg/mL) | MIC [16]: 12.5 µM (≈ 24.9 µg/mL) | MIC [17]: 6 µM (≈ 11.9 µg/mL) | MIC (Escherichia coli ESBL 4): ≥ 100 µM | MIC (Escherichia coli ESBL): ≥ 50 µM | MIC [7]: > 100 µM

SMILES: NC(=O)C[C@H](NC(=O)[C@H](Cc1c[nH]c2ccccc12)NC(=O)[C@H](Cc1c[nH]c2ccccc12)NC(=O)[C@H](Cc1c[nH]c2ccccc12)NC(=O)[C@H](CC(N)=O)NC(=O)[C@H](Cc1c[nH]c2ccccc12)NC(=O)[C@H](CCCN=C(N)N)NC(=O)[C@@H](N)CCCN=C(N)N)C(=O)N[C@@H](Cc1c[nH]c2ccccc12)C(=O)N[C@@H](CCCN=C(N)N)C(=O)N[C@@H](CCCN=C(N)N)C(N)=O [RRWNWWWNWRR]
MIC [6]: > 64 µM | MIC (Escherichia coli UB1005): ≥ 64 µM | MIC [18]: ≥ 64 µM | MIC [19]: ≥ 64 µM | MIC [20]: ≥ 64 µM | MIC [21]: ≥ 64 µM | MIC [22]: ≥ 64 µM | MIC [23]: ≥ 64 µM | MIC [7]: > 64 µM | MIC [24]: > 64 µM | MIC [25]: > 64 µM | MIC [26]: > 64 µM

SMILES: CC[C@H](C)[C@H](N)C(=O)N[C@H](C(=O)NCC(=O)N[C@@H](CC(C)C)C(=O)N[C@H](C(=O)N[C@@H](CO)C(=O)N[C@@H](CCCCN)C(=O)NCC(=O)N[C@H](C(=O)N[C@H]1CSSC[C@@H](C(=O)N[C@@H](CCCCN)C(=O)N[C@@H](CCCCN)C(=O)N[C@H](C(=O)N[C@@H](CC(C)C)C(=O)N[C@@H](CCCCN)C(=O)N[C@@H](CCC(N)=O)C(N)=O)C(C)C)NC(=O)[C@H](C(C)C)NC(=O)[C@H]([C@@H](C)O)NC(=O)[C@H](CCCCN)NC(=O)[C@H](C(C)C)NC(=O)[C@H](CC(C)C)NC(=O)[C@H](C(C)C)NC1=O)[C@@H](C)O)C(C)C)[C@@H](C)CC [IIGLVSKGTCVLVKTVCKKVLKQ]
MIC [31]: ≥ 50 µM | MIC [32]: 25 µM (≈ 61.4 µg/mL) | MIC [33]: 25 µM (≈ 61.4 µg/mL)

Further lines, with some results ahead:

MIC [4]: 10.5 µM (≈ 32 µg/mL) | MIC [5]: > 10.5 µM | MIC [6]: 1.64 µM (≈ 5 µg/mL) | MIC [7]: > 10.5 µM | MIC [8]: > 10.5 µM | MIC [9]: > 10.5 µM | MIC [10]: 13.2 µM (≈ 40.2 µg/mL) | MIC [11]: 13.2 µM (≈ 40.2 µg/mL) | MIC [12]: 13.2 µM (≈ 40.2 µg/mL)
SMILES: CC[C@H](C)[C@H](NC(=O)CNC(=O)[C@H](CCCN=C(N)N)NC(=O)[C@H](CCCCN)NC(=O)[C@H](CO)NC(=O)[C@H](CCCN=C(N)N)NC(=O)[C@H](CCCN=C(N)N)NC(=O)[C@@H](N)C(C)C)C(=O)N[C@@H](CCCCN)C(=O)N[C@H](C(=O)N1CCC[C@H]1C(=O)N[C@@H](CO)C(=O)N[C@@H](Cc1ccccc1)C(=O)N[C@H](C(=O)N[C@@H](CCCCN)C(=O)N[C@@H](CCCCN)C(=O)N[C@H](C(=O)N[C@@H](CC(C)C)C(=O)N[C@@H](CCCCN)C(=O)N[C@@H](CC(=O)O)C(=O)N[C@H](C(=O)N[C@H](C(=O)N[C@@H](CO)C(=O)N[C@@H](CCC(=O)O)C(=O)N[C@@H](CO)C(=O)N[C@H](C(=O)N[C@@H](CO)C(=O)O)[C@@H](C)CC)C(C)C)C(C)C)C(C)C)C(C)C)C(C)C [VRRSKRGIKVPSFVKKVLKDVVSESIS]

MIC (Citrobacter freundii): 2.91 µM (≈ 6 µg/mL) | MIC (Klebsiella pneumoniae): 2.06 µM (≈ 4.24 µg/mL) | MIC [13]: 5.83 µM (≈ 12 µg/mL)
SMILES: CC(C)C[C@H](NC(=O)[C@H](CCCCN)NC(=O)[C@H](CC(C)C)NC(=O)[C@H](CCCCN)NC(=O)[C@H](CS)NC(=O)[C@H](CC(C)C)NC(=O)[C@H](Cc1c[nH]c2ccccc12)NC(=O)CNC(=O)[C@H](CCCCN)NC(=O)[C@H](CS)NC(=O)[C@@H]1CCCN1C(=O)[C@H](CCCCN)NC(=O)[C@H](CCCN=C(N)N)NC(=O)[C@H](CCCN=C(N)N)NC(=O)[C@H](CO)NC(=O)[C@@H](N)CO)C(=O)N[C@@H](CCCN=C(N)N)C(=O)O [SSRRKPCKGWLCKLKLR]
MIC [14]: 1.46 µM (≈ 3 µg/mL)

MIC (Escherichia coli 45849): 0.237 µM (≈ 0.5 µg/mL) | MIC (Escherichia coli BL21AI): 0.237 µM (≈ 0.5 µg/mL) | MIC (Escherichia coli D31): 0.474 µM (≈ 1 µg/mL) | MIC [27]: 7.59 µM (≈ 16 µg/mL) | MIC [28]: 7.59 µM (≈ 16 µg/mL) | MIC [29]: 0.0593 µM (≈ 0.125 µg/mL) | MIC [30]: 0.0593 µM (≈ 0.125 µg/mL)
SMILES: CC[C@H](C)[C@H](NC(=O)[C@H](Cc1ccc(O)cc1)NC(=O)[C@@H](NC(=O)[C@@H]1CCCN1C(=O)[C@H](CCCN=C(N)N)NC(=O)[C@H](CC(N)=O)NC(=O)[C@H](CC(N)=O)NC(=O)CN)C(C)C)C(=O)N1CCC[C@H]1C(=O)N[C@@H](CCC(N)=O)C(=O)N1CCC[C@H]1C(=O)N[C@@H](CCCN=C(N)N)C(=O)N1CCC[C@H]1C(=O)N1CCC[C@H]1C(=O)N[C@@H](Cc1cnc[nH]1)C(=O)N1CCC[C@H]1C(=O)N[C@@H](CCCN=C(N)N)C(=O)N[C@@H](CC(C)C)C(N)=O [GNNRPVYIPQPRPPHPRL]
